Test results as given in PMC3898987 (Bioorganic & Medicinal Chemistry, 2013).
Changes are numbered by the printed parent chain.

Columns and labels:
5-HT3A receptor D165A = biological target: T1, 5-HT3A receptor D165A (Homo sapiens, UniProt P46098, D160A); assay: radioligand saturation binding, transfected HEK293 membranes; conditions: [3H]-palonosetron saturation, 5-HT3A D165A, 4 °C, 24 h
T1 sequence (P46098 24-478 D160A): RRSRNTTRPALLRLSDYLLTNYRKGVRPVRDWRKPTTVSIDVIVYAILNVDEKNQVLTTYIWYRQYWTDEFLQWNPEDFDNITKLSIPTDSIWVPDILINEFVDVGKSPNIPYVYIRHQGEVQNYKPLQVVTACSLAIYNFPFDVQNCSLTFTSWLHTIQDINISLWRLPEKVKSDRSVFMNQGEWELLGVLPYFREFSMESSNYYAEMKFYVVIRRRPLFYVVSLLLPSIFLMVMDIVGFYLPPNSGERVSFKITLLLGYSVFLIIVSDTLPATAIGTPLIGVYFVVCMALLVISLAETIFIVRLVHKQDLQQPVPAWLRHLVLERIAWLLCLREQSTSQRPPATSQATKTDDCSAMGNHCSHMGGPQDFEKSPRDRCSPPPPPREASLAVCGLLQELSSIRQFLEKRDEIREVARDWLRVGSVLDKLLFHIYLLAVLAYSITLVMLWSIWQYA
Method: (§1) Human embryonic kidney (HEK) 293 cells were cultured on 90 mm tissue culture plates at 37 °C and 7% CO2 in a humidified atmosphere. They were grown in DMEM:F12 (Dulbecco’s Modified Eagle’s Medium/Nutrient Mix F12 (1:1)) with GlutaMAX I™ containing 10% fetal calf serum and passaged when confluent. For radioligand binding studies, cells in 90 mm dishes were transfected at 60–70% confluency using polyethyleneimine and incubated for 3–4 days before use. For FlexStation assays, transfected cells were plated on 96-well plates and incubated 1–2 days before assay. […]
(§2) Eight-point binding assays were performed to produce saturation binding curves. […] Radioactive counts were measured using a Beckman LS6000SC liquid scintillation counter (Fullerton, California, USA).
(§3) Data were analyzed by iterative curve fitting using GraphPad Prism v5 (San Diego, CA) according to the following equation: B=Bmax[L]^n/kdn+[L]^n where B is the amount of bound radioligand, Bmax is the maximum specific binding at equilibrium, [L] is the concentration of radioligand, Kd is the equilibrium dissociation constant of the radioligand, and n is the Hill coefficient.

[1] = biological target: T2, 5-HT3AB receptor, 5-HT3B subunit E170A (Homo sapiens, UniProt P46098); assay: biochemical; format: binding; conditions: [3H]-palonosetron saturation, 5-HT3AB with 5-HT3B E170A, 4 °C, 24 h
T2 construct: variant as stated: E170A
T2 sequence (P46098 24-478): T1 sequence (P46098 24-478 D160A) with A137D
T2 sequence (O95264 22-441 partner): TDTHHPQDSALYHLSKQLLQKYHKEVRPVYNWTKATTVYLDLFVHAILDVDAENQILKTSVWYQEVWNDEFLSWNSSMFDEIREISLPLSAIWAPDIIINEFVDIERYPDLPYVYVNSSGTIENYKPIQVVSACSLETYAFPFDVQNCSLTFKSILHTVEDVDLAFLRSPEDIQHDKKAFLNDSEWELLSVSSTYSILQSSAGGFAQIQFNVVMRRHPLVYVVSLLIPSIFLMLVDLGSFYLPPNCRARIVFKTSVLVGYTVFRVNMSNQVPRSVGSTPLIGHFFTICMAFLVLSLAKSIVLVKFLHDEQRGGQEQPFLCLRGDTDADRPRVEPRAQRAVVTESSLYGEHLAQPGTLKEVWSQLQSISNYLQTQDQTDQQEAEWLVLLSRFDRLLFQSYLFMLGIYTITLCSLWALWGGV
Method: as §1, §2, §3

5-HT3A receptor S163A = biological target: T3, 5-HT3A receptor S163A (Homo sapiens, UniProt P46098, S158A); assay: radioligand saturation binding, transfected HEK293 membranes; conditions: [3H]-palonosetron saturation, 5-HT3A S163A, 4 °C, 24 h
T3 sequence (P46098 24-478 S158A): T1 sequence (P46098 24-478 D160A) with S135A, A137D
Method: as §1, §2, §3

[2] = biological target: T4, 5-HT3AB receptor, 5-HT3B subunit W90C (Homo sapiens, UniProt O95264+P46098, W83C); assay: as above; conditions: [3H]-palonosetron saturation, 5-HT3AB with 5-HT3B W90C, 4 °C, 24 h
T4 sequence (P46098 24-478): T1 sequence (P46098 24-478 D160A) with A137D
T4 sequence (O95264 22-441 W83C): T2 sequence (O95264 22-441 partner) with W62C
Method: as §1, §2, §3

O=C1c2cccc3c2[C@H](CCC3)CN1[C@@H]1CN2CCC1CC2 [Palonosetron]
Kd (5-HT3A receptor D165A): 0.3 ± 0.08 nM | Kd [1]: 0.21 ± 0.03 nM | Kd (5-HT3A receptor S163A): 0.3 ± 0.08 nM | Kd [2]: 0.34 ± 0.06 nM
